# Test results taken from article PMC11591545 (Antibiotics, 2024).
# Read-outs that look alike come from different tables or passages of the source.
# Tests used:
# [1] = label; cited from earlier work
# [2] = serum, mean ± SD
# Protocol: (§1) Sampling was routinely performed on three occasions for each patient at day 1 (30 min after the end of the infusion), day 7 (before redosing), and day 42 (before redosing). Blood samples were centrifuged (5 min, 4000 rpm) immediately after collection and aliquoted into 2 mL propylene tubes (Eppendorf, Hamburg, Germany). Aliquots were stored at −20 °C within 60 min after sample collection for a maximum of 4 weeks until assay. […] To obtain the unbound fraction, samples were prepared by solid phase extraction using a Nanosep® filter (Pall, New York, NY, USA) [18]. The limit of quantification (QL) was 12.5 mg/L for the total concentration and 1 mg/L for the unbound fraction [18].
# [3] = human
# Protocol: as §1
# clinical [4] = details: human, serum, iv, 1500 mg; SD
# Protocol: as §1
# clinical [5] = details: human, in vivo, iv
# [6] = cited from earlier work
# [7] = in vivo
# [8] = test system: S. aureus infection isolates; assay: MIC strips test and broth microdilution assay according to EUCAST; assay type: cell-based, Staphylococcus aureus
# Protocol: The MIC was tested with the MIC strips test (Liofilchem, Roseto degli Abruzzi, Italy) and broth microdilution assay according to EUCAST standards and the manufacturer’s instructions. All patients with VAD-associated infections were included in a register study after providing informed consent. A positive vote of the ethics committee of Heidelberg University Hospital was obtained before the start of the study (S-674/2022). […] Clinical data and laboratory and microbiological results were extracted.
# [9] = fixed in the final model, based on a previous reported value; cited from earlier work
# S. aureus = assay: Individual fAUC24 h/MIC at the end of the dosing interval in VAD patients; details: last 24 h before redosing
# Protocol: To use a conservative approach in suppressive therapy reflecting efficacy in the crucial phase before redosing, the AUC was calculated at the end of the dosing interval (last 24 h before redosing) [21].
compound,measurement,setting,value
CN[C@H]1C(=O)N[C@@H]2Cc3ccc(cc3)Oc3cc4cc(c3O[C@@H]3O[C@H](C(=O)O)[C@@H](O)[C@H](O)[C@H]3NC(=O)CCCCCCCCC(C)C)Oc3ccc(cc3Cl)[C@@H](O)[C@@H]3NC(=O)[C@H](NC(=O)[C@@H]4NC(=O)[C@@H](NC2=O)c2cc(cc(O)c2Cl)Oc2cc1ccc2O)c1ccc(O)c(c1)-c1c(O[C@H]2O[C@H](CO)[C@@H](O)[C@H](O)[C@@H]2O)cc(O)cc1[C@@H](C(=O)NCCCN(C)C)NC3=O [dalbavancin],labeled protein binding,[1],93%
same,fcday1 (unbound concentration day 1),[2]; end of infusion after the first dose,6.3 ± 2.7
same,fcday8 (unbound concentration day 8),[2]; trough by the end of the first week,1.3 ± 0.6
same,observed protein binding,[3],96-98%
same,level at 0.5 h,clinical [4],218000 ± 65900 ng/mL
same,level at 168 h,clinical [4],41100 ± 11100 ng/mL
same,level at 1008 h,clinical [4],13200 ± 9900 ng/mL
same,Vd,clinical [5],21.9 L
same,clearance,clinical [5],0.833 mL/min
same,population VD,[6]; earlier population PK studies,15.0 to 16.7 L
same,half-life,[6]; reported,15.6 days
same,clearance (CL),"[6]; three-compartment model, ref Carrothers et al. 14",0.053 L/h
same,clearance (CL),"[6]; two-compartment model, ref Buckwalter et al. 11",0.057 L/h
same,clearance (CL),"[6]; two-compartment model, ref Cojutti et al. 13",0.041 L/h
same,"CL, bootstrap mean (CI 95%)",[7],0.050 (0.044–0.055) L/h
same,"V1, bootstrap mean (CI 95%)",[7],6.42 (5.65–7.31) L
same,"V1, central volume of distribution, estimate",[7],6.5 L
same,"V2, bootstrap mean (CI 95%)",[7],14.99 (12.46–18.67) L
same,"V2, peripheral volume of distribution, estimate",[7],15.4 L
same,MIC,[8]; isolate of patient 1,0.064 µg/mL
same,MIC,[8]; isolate of patient 2,0.064 µg/mL
same,MIC,[8]; isolate of patient 5,0.094 µg/mL
same,MIC,[8]; isolate of patient 7,0.047 µg/mL
same,MIC,[8]; isolate of patient 8,0.047 µg/mL
same,MIC,[8]; isolate of patient 9,0.064 µg/mL
same,MIC,[8]; isolate of patient 10,0.125 µg/mL
same,MIC,[8]; isolate of patient 11,0.064 µg/mL
same,MIC,[8]; isolate of patient 12,0.047 µg/mL
same,MIC,[8]; isolate of patient 13,0.064 µg/mL
same,"Q, inter-compartmental clearance",[9],0.476 L/h
same,fAUC24 h/MIC,S. aureus; patient 1,141
same,fAUC24 h/MIC,S. aureus; patient 2,318
same,fAUC24 h/MIC,"S. aureus; patient 3, MIC not available, calculated with S. aureus breakpoint 0.25 mg/L",26
same,fAUC24 h/MIC,"S. aureus; patient 4, MIC not available, calculated with S. aureus breakpoint 0.25 mg/L",127
same,fAUC24 h/MIC,S. aureus; patient 5,110
same,fAUC24 h/MIC,"S. aureus; patient 6, MIC not available, calculated with S. aureus breakpoint 0.25 mg/L",49
same,fAUC24 h/MIC,S. aureus; patient 7,165
same,fAUC24 h/MIC,S. aureus; patient 8,253
same,fAUC24 h/MIC,S. aureus; patient 9,582
same,fAUC24 h/MIC,S. aureus; patient 10,60
same,fAUC24 h/MIC,S. aureus; patient 11,311
same,fAUC24 h/MIC,S. aureus; patient 12,104
same,fAUC24 h/MIC,S. aureus; patient 13,84
